Measured values: patent publication US20260356851A1, “TRICYCLIC COMPOUNDS AND USES THEREOF” (HUTCHMED LIMITED, priority 2023, published 2026)

Columns and labels:
Format in all cases: cell-based
[1] = molecular target: T1, pERK1/2 (Thr202/Tyr204), NCI-1H358 (KRAS G12C) (Homo sapiens, UniProt P01116, G12C); test: Assay of intracellular pERK1/2 (Thr202/Tyr204) phosphorylation in NCI-H358 cells (KRAS G12C); conditions: pERK1/2, 2 days, read-out: NCI-H358 (KRAS G12C) IC50
T1 construct: pERK1/2 HTRF read-out
Procedure, shortened: (§1)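 Cells (10000-12000/well) exposed to 3-fold compound dilutions for 2 days at 37 °C, then lysed; pERK1/2 (Thr202/Tyr204) measured by HTRF with d2 and cryptate antibodies, 665/615 nm ratio.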

[2] = molecular target: T2, pERK1/2 (Thr202/Tyr204), PANC-1 (KRAS G121D) (Homo sapiens, UniProt P01116, G12D); test: Assay of intracellular pERK1/2 (Thr202/Tyr204) phosphorylation in PANC-1 cells (KRAS G12D); conditions: pERK1/2, 2 days, read-out: PANC-1 (KRAS G12D) IC50
T2 construct: pERK1/2 HTRF read-out
Procedure, shortened: as §1

[3] = molecular target: T3, pERK1/2 (Thr202/Tyr204), NCI-1H441 (KRAS G12V) (Homo sapiens, UniProt P01116, G12V); test: Assay of intracellular pERK1/2 (Thr202/Tyr204) phosphorylation in NCI-H441 cells (KRAS G12V); conditions: pERK1/2, 2 days, read-out: NCI-H441 (KRAS G12V) IC50
T3 construct: pERK1/2 HTRF read-out
Procedure, shortened: as §1

T1 sequence (P01116 1-188 isoform P01116-2 G12C): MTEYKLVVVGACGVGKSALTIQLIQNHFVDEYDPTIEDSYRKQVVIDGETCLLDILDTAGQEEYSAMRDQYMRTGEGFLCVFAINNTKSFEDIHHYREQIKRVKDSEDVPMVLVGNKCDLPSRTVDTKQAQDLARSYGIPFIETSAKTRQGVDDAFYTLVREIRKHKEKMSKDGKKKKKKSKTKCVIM
T3 sequence (P01116 1-188 isoform P01116-2 G12V): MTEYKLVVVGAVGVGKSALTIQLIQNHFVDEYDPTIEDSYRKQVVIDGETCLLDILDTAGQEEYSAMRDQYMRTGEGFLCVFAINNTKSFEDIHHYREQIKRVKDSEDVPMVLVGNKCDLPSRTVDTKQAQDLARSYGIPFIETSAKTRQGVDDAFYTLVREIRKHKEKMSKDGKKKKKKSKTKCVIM
T2 sequence (P01116 1-188 isoform P01116-2 G12D): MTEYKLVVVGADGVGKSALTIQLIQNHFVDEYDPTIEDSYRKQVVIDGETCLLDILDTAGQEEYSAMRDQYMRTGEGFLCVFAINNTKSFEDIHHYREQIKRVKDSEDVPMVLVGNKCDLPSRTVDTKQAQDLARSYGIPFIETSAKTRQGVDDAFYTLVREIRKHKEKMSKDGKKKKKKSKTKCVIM

SMILES | IC50 [1] [nM] | IC50 [2] [nM] | IC50 [3] [nM]
CC(c1cccnc1N)N1CCOc2nc(-c3cc(O)cc4ccc(F)c(F)c34)c(F)c3nc(OCC4(CN(C)C)CC4)nc1c23 (stereo not drawn) [Compound 7] | 8 | 238 | 33
CC[C@H]1COc2nc(-c3c(C(F)(F)F)c(C)cc4[nH]ncc34)c(F)c3nc(OC[C@@]45CCCN4C[C@H](F)C5)nc(c23)N1C(C)c1cccnc1N (stereo partly drawn) [Compound 387] | 2 | 17 | 5
CC(c1cccnc1N)N1CCOc2nc(-c3cc(N)c(F)c(Cl)c3C3CC3)c(F)c3nc(OC[C@@]45CCCN4C[C@H](F)C5)nc1c23 (stereo partly drawn) [Compound 232] | 0.2 | 5 | 0.9
Cc1cc(N)cc(-c2nc3c4c(nc(OC[C@]56CCCN5[C@@H](CO)CC6)nc4c2F)N([C@H](C)c2cccnc2N)CCO3)c1C(F)(F)F (single isomer, unassigned) [Compound 100, ((3R,7aR)-7a-(((5-(5-amino-3-methyl-2-(trifluoromethyl)phenyl)-10-((R or S)-1-(2-aminopyridin-3-yl)ethyl)-4-fluoro-9,10-dihydro-8H-7-oxa-1,3,6,10-tetraazacyclohepta[de]naphthalen-2-yl)oxy)methyl)hexahydro-1H-pyrrrolizin-3-yl)methanol] | 93 | > 100 | > 100
Cc1c(F)c(N)cc(-c2nc3c4c(nc(OC[C@@]56CCCN5C[C@H](F)C6)nc4c2F)N(C(C)c2cn(C)nc2N)CCO3)c1C(F)(F)F (single isomer, unassigned) [Compound 261, 4-((R or S)-1-(5-(5-amino-4-fluoro-3-methyl-2-(trifluoromethyl)phenyl)-4-fluoro-2-(((2R,7aS)-2-fluorotetrahydro-1H-pyrrolizin-7a(5H)-yl)methoxy)-8,9-dihydro-10H-7-oxa-1,3,6,10-tetraazacyclohepta[de]naphthalen-10-yl)ethyl)-1-methyl-1H-pyrazol-3-amine] | > 100 | > 100 | > 100
CC(c1cccnc1N)N1CCOc2nc(-c3cc(O)cc(Cl)c3C(F)(F)F)c(F)c3nc(OC[C@@]45CCCN4C[C@H](F)C5)nc1c23 (single isomer, unassigned) [Compound 57, 3-(10-((R or S)-1-(2-aminopyridin-3-yl)ethyl)-4-fluoro-2-(((2R,7aS)-2-fluorotetrahydro-1H-pyrrolizin-7a(5H)-yl)methoxy)-9,10-dihydro-8H-7-oxa-1,3,6,10-tetraazacyclohepta[de]naphthalen-5-yl)-5-chloro-4-(trifluoromethyl)phenol] | 15 | 746 | 32
CSc1nc2c3c(nc(-c4cc(O)cc5ccc(F)c(F)c45)c(F)c3n1)OCCN2C(C)c1cccnc1N (stereo not drawn) [Compound 33] | 193 | > 1000 | 121
[2H][C@@]1(F)CN2CCC[C@@]2(COc2nc3c4c(nc(-c5cc(N)c(F)c(C)c5C(F)(F)F)c(F)c4n2)OCCN3C(C)c2cccnc2N)C1 (single isomer, unassigned) [Compound 169, (*)3-(1-(5-(5-amino-4-fluoro-3-methyl-2-(trifluoromethyl)phenyl)-4-fluoro-2-(((2S or 2R,7aS)-2-fluorotetrahydro-1H-pyrrolizin-7a(5H)-yl-2-d)methoxy)-8,9-dihydro-1OH-7-oxa-1,3,6,10-tetraazacyclohepta[de]naphthalen-10-yl)ethyl)pyridin-2-amine] | 0.7 | 17 | 2
Cc1cc(N)cc(-c2nc3c4c(nc(OC[C@@]56CCCN5C[C@H](F)C6)nc4c2F)N(C(C)c2cccnc2N)CCO3)c1C(F)(F)F (single isomer, unassigned) [Compound 62, 3-((R or S)-1-(5-(5-amino-3-methyl-2-(trifluoromethyl)phenyl)-4-fluoro-2-(((2R,7aS)-2-fluorotetrahydro-1H-pyrrolizin-7a(5H)-yl)methoxy)-8,9-dihydro-10H-7-oxa-1,3,6,10-tetraazacyclohepta[de]naphthalen-10-yl)ethyl)pyridin-2-amine] | 8 | 55 | 9
Cc1cc2[nH]ncc2c(-c2nc3c4c(nc(OC[C@@H]5CCN5CC(F)F)nc4c2F)N(C(C)c2cccnc2N)CCO3)c1C (stereo partly drawn) [Compound 14] | 19 | > 1000 | 36
CC(c1cccnc1N)N1CCOc2nc(-c3cc(O)cc4ccc(F)c(F)c34)c(F)c3nc(OC[C@@H]4CCN4CC(F)F)nc1c23 (stereo partly drawn) [Compound 8] | 1 | 113 | 2
CC(c1cccnc1N)N1c2nc(OC[C@@]34CCCN3C[C@H](F)C4)nc3c(F)c(-c4cc(N)cc(Cl)c4C(F)(F)F)nc(c23)OC[C@@H]1C (single isomer, unassigned) [Compound 271, 3-((R or S)-1-((S)-5-(5-amino-3-chloro-2-(trifluoromethyl)phenyl)-4-fluoro-2-(((2R,7aS)-2-fluorotetrahydro-1H-pyrrolizin-7a(5H)-yl)methoxy)-9-methyl-8,9-dihydro-10H-7-oxa-1,3,6,10-tetraazacyclohepta[de]naphthalen-10-yl)ethyl)pyridin-2-amine] | 66 | > 100 | > 100
Cc1c(C(F)(F)F)c(-c2nc3c4c(nc(OC[C@@]56CCCN5C[C@H](F)C6)nc4c2F)N(C(C)c2cc(F)cnc2N)[C@@H](C)CO3)c2cn[nH]c2c1F (stereo partly drawn) [Compound 368] | 0.3 | 0.6 | 0.3
[2H]C1([2H])Oc2nc(-c3cc(N)c(F)c(C)c3C(F)(F)F)c(F)c3nc(OC[C@@H]4C[C@@H](F)CN4C)nc(c23)N(C(C)c2cccnc2N)C1([2H])[2H] (single isomer, unassigned) [Compound 203, 3-((R or S)-1-(5-(5-amino-4-fluoro-3-methyl-2-(trifluoromethyl)phenyl)-4-fluoro-2-(((2S,4R)-4-fluoro-1-methylpyrrolidin-2-yl)methoxy)-8,9-dihydro-10H-7-oxa-1,3,6,10-tetraazacyclohepta[de]naphthalen-10-yl-8,8,9,9-d4)ethyl)pyridin-2-amine] | 88 | > 100 | > 100
Cc1c(F)c(N)cc(-c2nc3c4c(nc(OC[C@@H]5C[C@@H](F)CN5C)nc4c2F)N(C(C)c2cccnc2N)[C@@H](C)CO3)c1C(F)(F)F (single isomer, unassigned) [Compound 278, 3-((R or S)-1-((S)-5-(5-amino-4-fluoro-3-methyl-2-(trifluoromethyl)phenyl)-4-fluoro-2-(((2S,4R)-4-fluoro-1-methylpyrrolidin-2-yl)methoxy)-9-methyl-8,9-dihydro-10H-7-oxa-1,3,6,10-tetraazacyclohepta[de]naphthalen-10-yl)ethyl)pyridin-2-amine] | 0.2 | 2 | 0.6
Cc1c(F)c(N)cc(-c2nc3c4c(nc(OC[C@@]56CCCN5C[C@H](F)C6)nc4c2F)N(C(C)c2cccnc2N)[C@H](C)CO3)c1C(F)(F)F (single isomer, unassigned) [Compound 256, 3-((R or S)-1-((R)-5-(5-amino-4-fluoro-3-methyl-2-(trifluoromethyl)phenyl)-4-fluoro-2-(((2R,7aS)-2-fluorotetrahydro-1H-pyrrolizin-7a(5H)-yl)methoxy)-9-methyl-8,9-dihydro-10H-7-oxa-1,3,6,10-tetraazacyclohepta[de]naphthalen-10-yl)ethyl)pyridin-2-amine] | > 100 | > 100 | > 100
CC(c1cccnc1N)N1CCOc2nc(-c3cc(N)ccc3C(F)(F)F)c(F)c3nc(OC[C@@H]4CCCN4C)nc1c23 (stereo partly drawn) [Compound 36] | 6 | 286 | 25
CCOc1nc2c3c(nc(-c4cc(O)cc5ccc(F)c(F)c45)c(F)c3n1)OCCN2C(C)c1cccnc1N (stereo not drawn) [Compound 10] | 152 | > 1000 | 797
[2H]C([2H])(Oc1nc2c3c(nc(-c4cc(N)cc(C)c4C(F)(F)F)c(F)c3n1)OCCN2C(C)c1cccnc1N)[C@@H]1CCC([2H])([2H])N1C([2H])([2H])[2H] (single isomer, unassigned) [Compound 103, 3-((R or S)-1-(5-(5-amino-3-methyl-2-(trifluoromethyl)phenyl)-4-fluoro-2-(((S)-1-(methyl-d3)pyrrolidin-2-yl-5,5-d2)methoxy-d2)-8,9-dihydro-10H-7-oxa-1,3,6,10-tetraazacyclohepta[de]naphthalen-10-yl)ethyl)pyridin-2-amine] | 60 | > 100 | > 100
CC(c1cccnc1N)N1c2nc(OC[C@@]34CCCN3C[C@H](F)C4)nc3c(F)c(-c4c(Cl)ccc5[nH]ncc45)nc(c23)OC[C@@H]1C (stereo partly drawn) [Compound 321] | 1 | 36 | 7
CC(c1cccnc1N)N1CCOc2nc(-c3cc(N)ccc3C(F)(F)F)c(F)c3nc(OC[C@@]45CCCN4C[C@H](F)C5)nc1c23 (single isomer, unassigned) [Compound 53, 3-((R or S)-1-(5-(5-amino-2-(trifluoromethyl)phenyl)-4-fluoro-2-(((2R,7aS)-2-fluorotetrahydro-1H-pyrrolizin-7a(5H)-yl)methoxy)-8,9-dihydro-10H-7-oxa-1,3,6,10-tetraazacyclohepta[de]naphthalen-10-yl)ethyl)pyridin-2-amine] | 88 | > 1000 | 191
